Test results taken from publication doi:10.1101/2023.06.30.547126, “FruitFire: a luciferase based on a fruit fly metabolic enzyme” (bioRxiv, 2023).

Assays:
[1] = molecular target: T1, CG6178 (Drosophila melanogaster, UniProt Q9VCC6); test: X-ray crystal structure, […] Å; type: binding; conditions: active site; co-purified fatty acid adenylated with 10 mM ATP, ligand modelled as best fit to density; pH 7.5, 25 °C
T1 construct: gene Dmel\CG6178; full length, 544 residues; GST fusion from pGEX-6P-1 in E. coli BL21(DE3), GST cleaved with PreScission protease
T1 sequence (Q9VCC6 1-544): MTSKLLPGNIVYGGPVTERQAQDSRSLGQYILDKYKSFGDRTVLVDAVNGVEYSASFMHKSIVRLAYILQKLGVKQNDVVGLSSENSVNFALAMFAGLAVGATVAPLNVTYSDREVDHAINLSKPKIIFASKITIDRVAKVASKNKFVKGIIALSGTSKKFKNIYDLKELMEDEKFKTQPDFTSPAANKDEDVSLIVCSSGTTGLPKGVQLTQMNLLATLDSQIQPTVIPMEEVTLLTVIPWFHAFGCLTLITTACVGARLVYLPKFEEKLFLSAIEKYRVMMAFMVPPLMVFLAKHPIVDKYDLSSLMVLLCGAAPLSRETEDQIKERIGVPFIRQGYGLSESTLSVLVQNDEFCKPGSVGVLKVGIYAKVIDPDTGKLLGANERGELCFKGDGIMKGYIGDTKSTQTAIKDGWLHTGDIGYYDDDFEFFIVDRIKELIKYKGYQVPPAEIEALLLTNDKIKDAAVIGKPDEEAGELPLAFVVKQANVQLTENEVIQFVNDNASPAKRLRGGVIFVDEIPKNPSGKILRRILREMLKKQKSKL

[2] = molecular target: T2, Fluc (Photinus pyralis, UniProt P08659); test: live-cell bioluminescence imaging (IVIS-100); type: cell-based; conditions: transfected CHO cells, 0.122-250 μM substrate
T2 construct: luc2 gene in pcDNA3.1, transfected CHO cells
T2 sequence (P08659 whole entry): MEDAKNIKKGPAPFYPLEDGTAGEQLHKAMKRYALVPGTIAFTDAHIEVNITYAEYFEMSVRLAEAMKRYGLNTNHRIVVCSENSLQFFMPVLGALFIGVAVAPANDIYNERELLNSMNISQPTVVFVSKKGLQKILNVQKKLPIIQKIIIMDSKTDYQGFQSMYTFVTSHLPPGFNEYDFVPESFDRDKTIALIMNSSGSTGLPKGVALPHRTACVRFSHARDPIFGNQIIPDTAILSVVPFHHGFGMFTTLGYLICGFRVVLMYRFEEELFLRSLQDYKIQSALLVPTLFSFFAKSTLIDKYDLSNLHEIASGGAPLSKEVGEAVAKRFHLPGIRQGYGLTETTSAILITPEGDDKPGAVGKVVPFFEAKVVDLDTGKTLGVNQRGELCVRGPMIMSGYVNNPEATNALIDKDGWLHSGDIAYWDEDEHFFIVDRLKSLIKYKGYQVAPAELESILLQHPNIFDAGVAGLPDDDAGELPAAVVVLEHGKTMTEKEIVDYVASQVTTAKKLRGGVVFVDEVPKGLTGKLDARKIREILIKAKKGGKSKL

| SMILES | X-ray crystal structure, 2.5 Å [1] | live-cell bioluminescence imaging (IVIS-100) [2] |
| --- | --- | --- |
| CCCCCCCC(=O)OP(=O)(O)OC[C@H]1O[C@@H](n2cnc3c(N)ncnc32)[C@H](O)[C@@H]1O [octanoyl-AMP] | octanoyl-AMP (C8) and an ethylene glycol in the active site is most consistent with the data |  |
| CN1CCc2cc3nc(C4=N[C@@H](C(=O)O)CS4)sc3cc21 [CycLuc2] |  | relative performance of all three enzymes with CycLuc2 |
